Test results taken from PubChem BioAssay AID1259407 (Chemical Carcinogenesis Research Information System (CCRIS), 2018).
Calls of active or inactive are those of the source. The rule behind the calls is not given here.

Tested on: CCRIS mutagenicity, Ames/micronucleus/aberration tests
Test: CCRIS mutagenicity studies
[1] = Test System: AMES SALMONELLA TYPHIMURIUM, Strain/Indicator: TA98, Metabolic Activation: NONE, Method: PREINCUBATION
[2] = Test System: AMES SALMONELLA TYPHIMURIUM, Strain/Indicator: TA98, Metabolic Activation: NONE, Method: STANDARD PLATE
[3] = Test System: AMES SALMONELLA TYPHIMURIUM, Strain/Indicator: TA100, Metabolic Activation: NONE, Method: PREINCUBATION
[4] = Test System: AMES SALMONELLA TYPHIMURIUM, Strain/Indicator: TA100, Metabolic Activation: NONE, Method: STANDARD PLATE
[5] = Test System: AMES SALMONELLA TYPHIMURIUM, Strain/Indicator: TA102, Metabolic Activation: NONE, Method: PREINCUBATION
[6] = Test System: AMES SALMONELLA TYPHIMURIUM, Strain/Indicator: TA98, Metabolic Activation: RAT LIVER S-9, PHENOBARBITAL AND BETA-NAPHTHOFLAVONE, Method: PREINCUBATION
[7] = Test System: AMES SALMONELLA TYPHIMURIUM, Strain/Indicator: TA100, Metabolic Activation: RAT LIVER S-9, PHENOBARBITAL AND BETA-NAPHTHOFLAVONE, Method: PREINCUBATION
[8] = Test System: AMES SALMONELLA TYPHIMURIUM, Strain/Indicator: TA1535, Metabolic Activation: NONE, Method: PREINCUBATION
[9] = Test System: AMES SALMONELLA TYPHIMURIUM, Strain/Indicator: TA1535, Metabolic Activation: RAT LIVER S-9, PHENOBARBITAL AND BETA-NAPHTHOFLAVONE, Method: PREINCUBATION
[10] = Test System: AMES SALMONELLA TYPHIMURIUM, Strain/Indicator: TA1537, Metabolic Activation: NONE, Method: PREINCUBATION
[11] = Test System: AMES SALMONELLA TYPHIMURIUM, Strain/Indicator: TA1537, Metabolic Activation: RAT LIVER S-9, PHENOBARBITAL AND BETA-NAPHTHOFLAVONE, Method: PREINCUBATION

For `Cc1cc(=O)n(-c2ccccc2)n1C`, the mutagenic call (Test System: AMES SALMONELLA TYPHIMURIUM, Strain/Indicator: TA97, Metabolic Activation: NONE, Method: STANDARD PLATE) was “inactive; negative”, the mutagenic call (Test System: AMES SALMONELLA TYPHIMURIUM, Strain/Indicator: TA97, Metabolic Activation: RAT, LIVER, S-9, AROCLOR 1254, Method: STANDARD PLATE) was “inactive; negative” and the mutagenic call (Test System: AMES SALMONELLA TYPHIMURIUM, Strain/Indicator: TA97A, Metabolic Activation: NONE, Method: STANDARD PLATE) was “inactive; negative”. The mutagenic call (Test System: AMES SALMONELLA TYPHIMURIUM, Strain/Indicator: TA97A, Metabolic Activation: RAT LIVER S-9, PHENOBARBITAL, Method: STANDARD PLATE) was “inactive; negative”, the mutagenic call (Test System: AMES SALMONELLA TYPHIMURIUM, Strain/Indicator: TA98, Metabolic Activation: GUINEA PIG, LIVER, S-9, PCB, Method: PREINCUBATION) was “inactive; negative” and the mutagenic call (Test System: AMES SALMONELLA TYPHIMURIUM, Strain/Indicator: TA98, Metabolic Activation: HAMSTER, LIVER, S-9, PCB, Method: PREINCUBATION) was “inactive; negative”. For the same compound, the mutagenic call (Test System: AMES SALMONELLA TYPHIMURIUM, Strain/Indicator: TA98, Metabolic Activation: MOUSE, LIVER, S-9, PCB, Method: PREINCUBATION) was “inactive; negative”, the mutagenic call [1] was “inactive; negative” and the mutagenic call [2] was “inactive; negative”. The mutagenic call (Test System: AMES SALMONELLA TYPHIMURIUM, Strain/Indicator: TA98, Metabolic Activation: RAT LIVER S-9, PHENOBARBITAL, Method: STANDARD PLATE) was “inactive; negative”, the mutagenic call (Test System: AMES SALMONELLA TYPHIMURIUM, Strain/Indicator: TA98, Metabolic Activation: RAT, LIVER, S-9, AROCLOR 1254, Method: STANDARD PLATE) was “inactive; negative” and the mutagenic call (Test System: AMES SALMONELLA TYPHIMURIUM, Strain/Indicator: TA98, Metabolic Activation: RAT, LIVER, S-9, PCB, Method: PREINCUBATION) was “inactive; negative”. For the same compound, the mutagenic call (Test System: AMES SALMONELLA TYPHIMURIUM, Strain/Indicator: TA100, Metabolic Activation: GUINEA PIG, LIVER, S-9, PCB, Method: PREINCUBATION) was “inactive; negative”, the mutagenic call (Test System: AMES SALMONELLA TYPHIMURIUM, Strain/Indicator: TA100, Metabolic Activation: HAMSTER, LIVER, S-9, PCB, Method: PREINCUBATION) was “inactive; negative” and the mutagenic call (Test System: AMES SALMONELLA TYPHIMURIUM, Strain/Indicator: TA100, Metabolic Activation: MOUSE, LIVER, S-9, PCB, Method: PREINCUBATION) was “inactive; negative”. The mutagenic call [3] was “inactive; negative”, the mutagenic call [4] was “inactive; negative” and the mutagenic call (Test System: AMES SALMONELLA TYPHIMURIUM, Strain/Indicator: TA100, Metabolic Activation: RAT LIVER S-9, PHENOBARBITAL, Method: STANDARD PLATE) was “inactive; negative”. For the same compound, the mutagenic call (Test System: AMES SALMONELLA TYPHIMURIUM, Strain/Indicator: TA100, Metabolic Activation: RAT, LIVER, S-9, AROCLOR 1254, Method: STANDARD PLATE) was “inactive; negative”, the mutagenic call (Test System: AMES SALMONELLA TYPHIMURIUM, Strain/Indicator: TA100, Metabolic Activation: RAT, LIVER, S-9, PCB, Method: PREINCUBATION) was “inactive; negative” and the mutagenic call (Test System: AMES SALMONELLA TYPHIMURIUM, Strain/Indicator: TA102, Metabolic Activation: NONE, Method: STANDARD PLATE) was “inactive; negative”. The mutagenic call (Test System: AMES SALMONELLA TYPHIMURIUM, Strain/Indicator: TA102, Metabolic Activation: RAT LIVER S-9, PHENOBARBITAL, Method: STANDARD PLATE) was “inactive; negative”, the mutagenic call (Test System: AMES SALMONELLA TYPHIMURIUM, Strain/Indicator: TA102, Metabolic Activation: RAT, LIVER, S-9, AROCLOR 1254, Method: STANDARD PLATE) was “inactive; negative” and the mutagenic call (Test System: AMES SALMONELLA TYPHIMURIUM, Strain/Indicator: TA104, Metabolic Activation: NONE, Method: STANDARD PLATE) was “inactive; negative”. For the same compound, the mutagenic call (Test System: AMES SALMONELLA TYPHIMURIUM, Strain/Indicator: TA104, Metabolic Activation: RAT, LIVER, S-9, AROCLOR 1254, Method: STANDARD PLATE) was “inactive; negative”.

In the case of `O=[N+]([O-])c1ccc(/C=N\O)o1`, the mutagenic call (Test System: E. COLI, Strain/Indicator: WP2 UVRA, Metabolic Activation: NONE, Method: SPOT) is reported as “active; positive” and the mutagenic call (Test System: E. COLI, Strain/Indicator: WP2 UVRA, Metabolic Activation: NONE, Method: STANDARD PLATE) is reported as “active; positive”.

`Cc1c(N)nc(C(CC(N)=O)NCC(N)C(N)=O)nc1C(=O)NC(C(=O)NC(C)C(O)C(C)C(=O)NC(C(=O)NCCc1nc(-c2nc(C(=O)O)cs2)cs1)C(C)O)C(OC1OC(CO)C(O)C(O)C1OC1OC(CO)C(O)C(OC(N)=O)C1O)c1cnc[nH]1` (stereo not drawn) was tested, and the mutagenic call [5] was “inactive; negative”.

`CNC(=O)N(C)C(=O)NO` was tested, and the mutagenic call [2] was “inactive; negative” and the mutagenic call [4] was “inactive; negative”.

`COc1ccc2c(c1)nc(N)n2C` was tested, and the mutagenic call (Test System: AMES SALMONELLA TYPHIMURIUM, Strain/Indicator: TA98, Metabolic Activation: RAT, LIVER, S-9, AROCLOR 1254, Method: PREINCUBATION) was “active; positive” and the mutagenic call (Test System: AMES SALMONELLA TYPHIMURIUM, Strain/Indicator: TA100, Metabolic Activation: RAT, LIVER, S-9, AROCLOR 1254, Method: PREINCUBATION) was “active; positive”.

In the case of `N=C(N)S(=O)O`, the mutagenic call [1] is reported as “inactive; negative”, the mutagenic call [6] is reported as “inactive; negative” and the mutagenic call [3] is reported as “inactive; negative”. For the same compound, the mutagenic call [7] was “inactive; negative”, the mutagenic call [8] was “active; positive” and the mutagenic call [9] was “active; positive”. For the same compound, the mutagenic call [10] was “inactive; negative”, the mutagenic call [11] was “inactive; negative” and the mutagenic call (Test System: E.COLI, Strain/Indicator: WP2UVRA\PKM101, Metabolic Activation: NONE, Method: PREINCUBATION) was “inactive; negative”. For the same compound, the mutagenic call (Test System: E.COLI, Strain/Indicator: WP2UVRA\PKM101, Metabolic Activation: RAT LIVER S-9, PHENOBARBITAL AND BETA-NAPHTHOFLAVONE, Method: PREINCUBATION) was “inactive; negative”.

For `C=C(C)C(=O)OCCN(C)C`, the mutagenic call [1] was “inactive; negative”, the mutagenic call [6] was “inactive; negative” and the mutagenic call [3] was “inactive; negative”. For the same compound, the mutagenic call [7] was “inactive; negative”, the mutagenic call [5] was “inactive; negative” and the mutagenic call (Test System: AMES SALMONELLA TYPHIMURIUM, Strain/Indicator: TA102, Metabolic Activation: RAT LIVER S-9, PHENOBARBITAL AND BETA-NAPHTHOFLAVONE, Method: PREINCUBATION) was “inactive; negative”. For the same compound, the mutagenic call (Test System: AMES SALMONELLA TYPHIMURIUM, Strain/Indicator: TA104, Metabolic Activation: NONE, Method: PREINCUBATION) was “inactive; negative”, the mutagenic call (Test System: AMES SALMONELLA TYPHIMURIUM, Strain/Indicator: TA104, Metabolic Activation: RAT LIVER S-9, PHENOBARBITAL AND BETA-NAPHTHOFLAVONE, Method: PREINCUBATION) was “active; positive” and the mutagenic call [8] was “inactive; negative”. The mutagenic call [9] was “inactive; negative”, the mutagenic call [10] was “inactive; negative” and the mutagenic call [11] was “inactive; negative”. For the same compound, the mutagenic call (Test System: E.COLI, Strain/Indicator: WP2UVRA/PKM101, Metabolic Activation: NONE, Method: PREINCUBATION) was “inactive; negative”, the mutagenic call (Test System: E.COLI, Strain/Indicator: WP2UVRA/PKM101, Metabolic Activation: RAT LIVER S-9, PHENOBARBITAL AND BETA-NAPHTHOFLAVONE, Method: PREINCUBATION) was “inactive; negative” and the mutagenic call (Test System: E.COLI, Strain/Indicator: WP2UVRA, Metabolic Activation: NONE, Method: PREINCUBATION) was “inactive; negative”. The mutagenic call (Test System: E.COLI, Strain/Indicator: WP2UVRA, Metabolic Activation: RAT LIVER S-9, PHENOBARBITAL AND BETA-NAPHTHOFLAVONE, Method: PREINCUBATION) was “inactive; negative”.
